Reference: ChEMBL document CHEMBL1136903, “Spiroimidazolidinone NPC1L1 inhibitors. 1: Discovery by 3D-similarity-based virtual screening” (Bioorg Med Chem Lett, 2009)

Target: T1, NPC1-like intracellular cholesterol transporter 1 (Homo sapiens, UniProt Q9UHC9)
T1 sequence (Q9UHC9 whole entry): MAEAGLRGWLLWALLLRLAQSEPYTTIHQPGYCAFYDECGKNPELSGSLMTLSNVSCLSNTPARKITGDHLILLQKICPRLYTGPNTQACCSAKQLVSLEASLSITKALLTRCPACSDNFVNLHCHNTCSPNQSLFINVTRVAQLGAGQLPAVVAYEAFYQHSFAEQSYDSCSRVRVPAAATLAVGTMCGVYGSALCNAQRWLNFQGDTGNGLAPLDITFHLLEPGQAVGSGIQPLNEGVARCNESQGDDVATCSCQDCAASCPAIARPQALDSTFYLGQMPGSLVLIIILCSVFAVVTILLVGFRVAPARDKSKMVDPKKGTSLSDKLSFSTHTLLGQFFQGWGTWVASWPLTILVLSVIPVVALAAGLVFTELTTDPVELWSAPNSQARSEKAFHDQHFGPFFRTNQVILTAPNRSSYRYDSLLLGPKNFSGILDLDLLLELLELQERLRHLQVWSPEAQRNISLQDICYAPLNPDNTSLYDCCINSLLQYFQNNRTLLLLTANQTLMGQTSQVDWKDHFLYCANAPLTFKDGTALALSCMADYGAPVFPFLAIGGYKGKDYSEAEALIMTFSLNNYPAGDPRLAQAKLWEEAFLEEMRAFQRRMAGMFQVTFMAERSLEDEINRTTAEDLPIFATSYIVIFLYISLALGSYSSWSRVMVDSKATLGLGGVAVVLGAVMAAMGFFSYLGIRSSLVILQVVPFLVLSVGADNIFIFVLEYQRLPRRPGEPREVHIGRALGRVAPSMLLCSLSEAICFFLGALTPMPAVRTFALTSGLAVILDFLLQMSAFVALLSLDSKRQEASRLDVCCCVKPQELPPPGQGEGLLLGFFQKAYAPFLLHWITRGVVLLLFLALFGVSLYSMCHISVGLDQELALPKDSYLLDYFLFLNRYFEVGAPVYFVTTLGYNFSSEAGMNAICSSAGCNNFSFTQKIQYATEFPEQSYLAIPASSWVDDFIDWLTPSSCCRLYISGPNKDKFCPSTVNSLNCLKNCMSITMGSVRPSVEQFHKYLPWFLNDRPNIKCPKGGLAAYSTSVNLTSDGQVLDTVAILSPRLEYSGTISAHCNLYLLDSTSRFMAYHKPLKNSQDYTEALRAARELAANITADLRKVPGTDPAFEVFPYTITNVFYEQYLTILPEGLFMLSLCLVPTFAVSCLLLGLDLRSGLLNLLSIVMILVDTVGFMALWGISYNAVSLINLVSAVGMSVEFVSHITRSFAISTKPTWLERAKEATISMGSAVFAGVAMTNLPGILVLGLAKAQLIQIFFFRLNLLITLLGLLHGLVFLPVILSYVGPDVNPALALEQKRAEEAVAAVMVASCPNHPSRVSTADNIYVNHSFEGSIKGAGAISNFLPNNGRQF
Experiment: Displacement of [35S](2S,3S,4S,5R,6S)-6-(4-((2S,3R)-3-((S)-3-(4-fluorophenyl)-3-hydroxypropyl)-1-(4-(3-(methylsulfonamido)prop-1-ynyl)phenyl)-4-oxoazetidin-2-yl)phenoxy)-3,4,5-trihydroxytetrahydro-2H-pyran-2-carboxylic acid from human recombinant NPC1L1 expressed in HEK293 cells
Assay type: cell-based

Row | SMILES | IC50
1 | CC1(C(=O)O)COc2ccc(CCN(CCCCC3CCCCC3)C(=O)Nc3ccc(SC(F)(F)F)cc3)cc2O1 (stereo unspecified) | 4.6 µM
2 | O=C(c1cccc2ccccc12)N1CC(C(=O)N2CCC3(C=Cc4ccccc43)CC2)CC(c2ccccc2)C1 (stereo unspecified) | 0.39 µM
3 | CC(C)(C)c1ccc(C(=O)NS(=O)(=O)N2CC3(CCN(C(=O)OCCc4ccccc4)CC3)c3ccccc32)cc1 | 79 µM
4 | Cn1c(N(Cc2ccc(OCCCC(=O)O)cc2)[C@H]2CC[C@H](C(C)(C)C)CC2)nc2cc(OC3CCCC3)ccc21 | 7.4 µM
5 | Cc1ccc(CCC2CCC(CNC(=O)c3cn[nH]c3)CN2C(=O)OCc2ccccc2)cc1 (stereo unspecified) | 81 µM
6 | CC(C)CNC(=O)CN1CN(c2ccccc2)C2(CCN(C(=O)c3ccc(C(C)(C)C)cc3)CC2)C1=O | 4.4 µM
